Results taken from PMC7862523 (Clinical Pharmacokinetics, 2020).

Columns and labels:
[1] = Association between model-derived AUC and pharmacodynamic biomarkers; type: in vivo, human
[2] = Population pharmacokinetic model
[3] = final population PK model, combined dataset

## CC(C)CN(C[C@@H](O)[C@H](Cc1ccccc1)NC(=O)O[C@H]1CO[C@H]2OCC[C@H]21)S(=O)(=O)c1ccc(N)cc1 [Darunavir]
[1]; Spearman, p = 0.3
  correlation between AUC and CD4 lymphocyte count: no apparent correlation
[1]; any point during follow-up, W = 1613.5, p = 0.42
  correlation between AUC and occurrence of CNS adverse events: no apparent correlation
[1]; any point during follow-up, W = 1687, p = 0.97
  correlation between AUC and occurrence of lipodystrophy: no apparent correlation
[1]; viral load > 40 or < 40 copies/mL, Wilcoxon W = 582, p = 0.45
  correlation between AUC and viral load: no apparent correlation
[2]; combined dataset
  CL higher in CYP3A5 expressors compared with non-expressors: 19%
  CL lower in female compared with male individuals: 21%
[2]; final model
  σadditive (SD), residual variability: 0.641
  σexponential (SD), residual variability: 0.281
[2]; final model, rs8027174
  SLCO3A1 G > T on V (covariate scale factor): 0.81
[2]; [3]
  ωCL (SD), inter-individual variability of CL: 0.22
  ωV (SD), inter-individual variability of V: 0.33
  ωka (SD), inter-individual variability of ka: 0.60
[2]; final population PK model, combined dataset, typical value
  ka (absorption rate constant), estimate: 0.68 h⁻¹
